Experimental data published in publication PMC5404848 (Cell Chemical Biology, 2017).

Tests used:
HCT116 cells [1] = test: Western blot analysis of USP2a targets Aurora A and cyclin A1; conditions: 5 μM and 20 μM, 48 hr
Description: Total cell lysates were prepared with RIPA buffer (Sigma Aldrich) containing protease inhibitor cocktail (Sigma Aldrich) alone or with phosphatase inhibitor cocktail (Roche). Following the electrophoresis and transfer, PVDF membranes were blocked with 4% BSA (BioShop) in TBS-N buffer and incubated with primary antibody at 4°C overnight. After four washes, the addition of secondary antibodies and additional four washes, the detection was performed using Clarity Western ECL Substrate (BioRad) and ChemiDoc MP system (BioRad). The densitometry analysis was performed with Image Lab software (BioRad). All measured values, besides cyclin D1 stability experiment, were normalized to GAPDH or α-tubulin expression level.

HCT116 p53^wt cells [2] = test: Cell numbers from pictures of Hoechst-stained cells; format: cell-based, Human; conditions: 3 days, DMSO 6452
Description: The cells were plated on the 96-well white, flat bottom plates (Falcon) and treated with DMSO, LCAHA or Staurosporine. For the detection of caspase activity Caspase-Glo 3/7 Assay System was used (Promega) according to the manufacturer’s instructions. Due to the observed growth-inhibitory properties of LCAHA the results were normalized to cell numbers, calculated from the pictures of Hoechst-stained cells seeded on transparent culture plates and treated identically as the cells seeded for caspase activity assay (mean nuclei number per picture was 6452 for 3 days treatment with DMSO, and 3957, 4229 and 2783 for the cells treated with increasing concentrations of LCAHA).

MCF-7 cells [3] = test: Colony formation assay; format: cell-based, Human; conditions: 5 μM for 5 days
Description: (§1) […]. […] […]. In addition a colony-forming assay was performed on cyclin D1-addicted MCF-7 cells and cyclin D1-negative SAOS-2 cells. […].
(§2) One thousand of the cells was then seeded on 6-well plates and cultured for 2-4 weeks until the generation of well-visible clones. The plates were stained with crystal violet, imaged with the ChemiDoc MP system and analyzed using the ImageJ software ([Schneider et al., 2012]) and ‘Analyze particles’ tool. The surviving fraction (SF) was calculated using the equation: SF = (PE of treated sample / PE of control) * 100%, where PE (plating efficiency) = Ncolonies / Ncells plated.

SAOS-2 cells = test: Colony formation assay; format: cell-based, Human; conditions: 5 μM for 5 days
Description: as §1, §2

HCT116 p53^−/− cells [4] = test: Cell cycle analysis (PI / BrdU, flow cytometry); format: cell-based, Human; conditions: 5 or 10 μM, 48 hr
Description: Low concentrations of LCAHA inhibit the growth of HCT116 cells without affecting their survival. To investigate this effect, we analyzed the cell-cycle distribution. Cells treated for 48 hr with LCAHA or DMSO were pulse-labeled with BrdU for 1 hr and stained with fluorescein isothiocyanate (FITC)-anti-bromodeoxyuridine (BrdU) antibody and propidium iodide (PI).
The cells were treated with DMSO or LCAHA for 48 hours and pulse-labelled with 10 μM bromodeoxyuridine (BrdU, Sigma Aldrich) for the last hour of the treatment. After that, the cells were either harvested by trypsinization and fixed with 96% ethanol, or cultured for additional 3-9 hours in the absence of BrdU before harvesting and fixation. The cells were stained with PI and FITC-conjugated anti-BrdU antibody (BioLegend, cat. 364104) and analysed with Fortessa flow cytometer (Becton Dickinson). Cell cycle distribution was analysed using ModFit LT Software (Verity Software House).

HCT116 cells [5] = test: Membrane integrity LDH release assay; format: cell-based, Human; conditions: 48 hr of treatment
Description: To test the biological activity of the compounds, we performed MTT (3-(4,5-dimethylthiazol-2-yl)-2,5-diphenyltetrazolium bromide) and lactate dehydrogenase (LDH) release assays. In addition, the importance of p53 status was evaluated by the use of two variants of HCT116 cells: HCT116 p53^wt (wild-type) and HCT116 p53^−/−. To track not only the toxic (lethal) but also growth-inhibitory (GI) effect in the MTT assay, we treated the cells for 6 days. In the experiment the toxic effect, but not the GI effect, was expected to be accompanied by LDH release.
Membrane integrity LDH release assay was performed using CytoTox-ONE kit (Promega). The cells were seeded on 96-well black plates, and after 24 hours treated with the compounds or DMSO for 2 days. The assay was performed according to the manufacturer’s instructions. For each well the data was calculated as a % of total LDH content, measured for the lysed cells, treated in the same manner as cells on that well.

MCF-7 cells [6] = test: Western blot analysis of cyclin D1 expression; format: cell-based, Human; conditions: 10 μM, 48 hr
MCF-7 cells [7] = test: Synchronization-release assay (serum starvation and release); format: cell-based, Human; conditions: pre-treatment during 2 days serum starvation, release 10% FBS 24 hr
Text: Cyclin D1 is a key modulator of the transition through the G1/S checkpoint and is known to be sensitive to proliferative signals delivered by the mitogens. To evaluate the interplay between the mitogens provided by the serum and LCAHA, we performed a synchronization-release assay on the cells treated with LCAHA. To assess the involvement of cyclin D1 in this interplay, we used MCF-7 (cyclin D1-dependent) and SAOS-2 (cyclin D1-negative) cells. The cells were synchronized in G0/G1 by the removal of fetal bovine serum (FBS) for 2 days of the culture in the presence of LCAHA. After this time, the cells were released by the addition of medium containing 10% FBS for 24 hr (still in the presence of the compound).
Figure S4. The analysis of the progression of MCF-7 and SAOS-2 cells through the cell cycle following serum starvation and release by the addition of serum. Related to […]
For the experiment, cyclin D1-dependent MCF-7 and cyclin D1-negative SAOS-2 cell lines were used.
The cells were synchronized in G0/G1 by the removal of FBS for 2 days of the culture in the presence of LCAHA compound. […] The cells were fixed, stained with PI and analysed for cell cycle distribution with ModFit LT Software. […] The statistical significance was evaluated using t-test: * p<0.05, ** […]

HCT116 p53^wt cells [8] = test: MTT assay (cell viability), 6 days treatment; format: cell-based, Human; conditions: for GI50: HCT116^wt, MTT assay
Description: (§3) To test the biological activity of the compounds, we performed MTT (3-(4,5-dimethylthiazol-2-yl)-2,5-diphenyltetrazolium bromide) and lactate dehydrogenase (LDH) release assays. […] To track not only the toxic (lethal) but also growth-inhibitory (GI) effect in the MTT assay, we treated the cells for 6 days.
(§4) For MTT assay, the cells were seeded on 96-well transparent plates and treated the next day with the compounds or DMSO for 6 days. Thiazolyl Blue Tetrazolium Bromide (MTT, Sigma Aldrich) was added for 60 minutes to a final concentration of […]. The medium was removed and MTT crystals were dissolved in isopropanol supplemented with 40 mM HCl. The absorbance was measured with Infinite 200 microplate reader (Tecan Group Ltd.) at 570 nm with the reference wavelength 650 nm for background subtraction.

HCT116 p53^−/− cells [9] = test: MTT assay (cell viability), 6 days treatment; format: cell-based, Human; conditions: for GI50: HCT116 p53^−/−, MTT assay
Description: as §3, §4

[10] = Homo sapiens, HCT-116, 144 h, 6 days
[11] = concentration range 2–20 μM, MTT, 6 days

Structure (SMILES): C[C@H](CCC(=O)NO)[C@H]1CC[C@H]2[C@@H]3CC[C@@H]4C[C@H](O)CC[C@]4(C)[C@H]3CC[C@]12C [LCAHA, N-(hydroxy)-3-hydroxylithocholanamide]
- expression level of Aurora A (HCT116 cells [1]): significant decrease
- expression level of cyclin A1 (HCT116 cells [1]): significant decrease
- mean nuclei number per picture (HCT116 p53^wt cells [2]; first (lowest) of increasing concentrations): 3957
- mean nuclei number per picture (HCT116 p53^wt cells [2]; second of increasing concentrations): 4229
- mean nuclei number per picture (HCT116 p53^wt cells [2]; third (highest) of increasing concentrations): 2783
- clonogenic potential (surviving fraction and mean colony size) (MCF-7 cells [3]): significant decrease of the clonogenic potential
- clonogenic potential (SAOS-2 cells): did not affect the clonogenic potential
- G0/G1 arrest (HCT116 p53^−/− cells [4]): mild, but significant G0/G1 arrest
- LDH release (HCT116 cells [5]): observed only at the concentrations corresponding to the high-concentration toxic effect
- cyclin D1 expression (MCF-7 cells [6]): significant decrease of cyclin D1 expression
- entry into the S phase after serum release (MCF-7 cells [7]): significantly inhibited the entry into the S phase
- GI50 (HCT116 p53^wt cells [8]; 6 days): 0.87 ± 0.09 µM
- GI50 (HCT116 p53^wt cells [8]; [10]): < 1 µM
- LD50 (concentration killing 50% of cells) (HCT116 p53^wt cells [8]; Homo sapiens, HCT-116, 144 h, read-out: LD50, HCT116^wt, MTT assay, 6 days): > 25 µM
- growth of cells inhibited (HCT116 p53^wt cells [8]; [11]): about 60%
- GI50 (HCT116 p53^−/− cells [9]; 6 days): 0.96 ± 0.29 µM
- GI50 (HCT116 p53^−/− cells [9]; [10]): < 1 µM
- LD50 (HCT116 p53^−/− cells [9]; Homo sapiens, HCT-116, 144 h, read-out: LD50, HCT116 p53^−/−, MTT assay, 6 days): > 25 µM
- growth of cells inhibited (HCT116 p53^−/− cells [9]; [11]): about 60%
